Drawing on patent publication US20240360179A1, “STAPLED PEPTIDES AND METHODS THEREOF” (FOG PHARMACEUTICALS, INC., priority 2021, published 2024), this text covers IC50 for 17 molecules.

For the assay, the system named is COLO320DM cells. The assay can be described thus: COLO320DM proliferation assay (CellTiter-Glo). In kind it is cell-based, human. The note with it: read-out: COLO320DM Proliferation Abs IC50. As to the method: COLO320DM proliferation assay IC50: In some embodiments, inhibition of cell proliferation by provided technologies were assessed using cell lines related to or from certain conditions, disorders or diseases. In some embodiments, cell proliferation was assessed in COLO320DM cells. In some embodiments, assessment was performed using the following procedure: On Day 1, cultured COLO320DM cells in a T75 flask were trypsinized in 3 mL of 0.250% trypsin/EDTA for 5 min and quenched with 10 mL RPMI-1640+4% HI FBS assay media. The cells were spun down at 1200 rpm for 5 min, the cell pellet collected and re-suspended at 5000 cells/mL in assay media. Using a Combi liquid handler, cells were dispensed (50 uL, 250 cells/well) into three 384 well plates. Plates were incubated at 37° C., 5% CO2 for 18-22 h. On day 2, compounds were added. A liquid handling system was used to prepare the compound dilution and dispense compound into assay plates. The compounds were serially diluted 1/2 in 90% DMSO to create a 7 point dose curve. From compound plate, 100 nL of compound were dispensed directly into wells of the assay plates to create a dose curve starting at 20 uM and ending at 313 nM. Assay plates were incubated at 37° C., 5% CO2 for 96 h. On day 6, assay plates were removed from the incubator and allowed to sit at room temperature for 30 min. Using a liquid handler, 20 uL of CellTiter Glo reagent was added to each well. The assay plates were shaken for 2 min and allowed to sit on the bench for 10-15 minutes. The assay plates were read using the CellTiter Glo protocol on a GloMax microplate reader, and the data analyzed using GraphPad Prism. Activities of various agents, including various stapled peptides in Table E2, were confirmed.
In some embodiments, an assessment was performed as follows. On day 0, cells were seeded in cell culture media (RPMI1640, 4% FBS) in a 96-well plate at desired density, typically at 1000 cells/well. On day 1, 10 mM agent stock solution (in DMSO) was first serially diluted into DMSO at 1:2 ratio, followed by diluting with cell culture media at two times of the final concentrations. Finally, agent-containing media were introduced to cell culture wells already having the same volume of cell culture media. Cells were incubated with agents for desired days before lysed for CellTiter-Glo® Luminescent Cell Viability Assay according to the manufacture instruction (Promega, G7570). Luminescent signal was obtained from a microplate reader (GloMax, Promega). Cell viability data was expressed as % relative to DMSO control wells.
Proliferation Assay. In some embodiments, various proliferation assays are utilized to characterize or assess provided technologies. In some embodiments, on day 0, cells were seeded in cell culture media in a 96-well plate at desired density, typically at 1000 cells/well. On day 1, 10 mM compound stock solution was first serially diluted into DMSO, followed by diluting with cell culture media at two times of the final concentrations. Finally, compound-containing media were introduced to cell culture wells already having the same volume of cell culture media. Cells were incubated with compounds for desired days before lysed for CTG according to the manufacture instruction (G7570, Promega). Luminescent signal was obtained from a microplate reader (GloMax, Promega).
“Ac-PL3-Asp-Npg-B5-Asp-3COOHF-Aib-Ala-Phe-Lys*3-PyrS2-3Thi-BztA-GlnR*3-Ala-Ala-Arg-Ala-Ala-Ala-Ala-NH2 [I-1155]”: the IC50 is at most 10 µM.
Turning to `CC(=O)N1CCC[C@]12CC=CCCCC1(CCCC=CCCCOC(=O)N3CC[C@@]4(C3)NC(=O)[C@H](CCCCNC(=O)CC[C@@H](C(=O)N[C@@H](C)C(N)=O)NC(=O)[C@H](Cc3csc5ccccc35)NC(=O)[C@H](Cc3cccnc3)NC4=O)NC(=O)[C@H](Cc3ccccc3)NC(=O)[C@H](C)NC(=O)C(C)(C)NC(=O)[C@H](Cc3cccc(C(=O)O)c3)NC(=O)[C@H](CC(=O)O)NC1=O)NC(=O)[C@H](CC(C)(C)C)NC(=O)[C@H](CC(=O)O)NC2=O` (relative stereo) [I-300, Ac-PL3-Asp-Npg-B5-Asp-3COOHF-Aib-Ala-Phe-Lys*3-PyrS2-3PyrA-BztA-GlnR*3-Ala-NH2], the IC50 is above 20 µM.
Consider “Ac-PL3-Asp-DipA-B5-Asp-3COOHF-Ala-Ala-Phe-Lys*3-PyrS2-3Thi-BztA-GlnR*3-Ala-NH2 [I-982]”, for which the IC50 was at most 10 µM.
The result for `CC(=O)N1CCC[C@]12CC=CCCCC1(CCCC=CCCCOC(=O)N3CC[C@@]4(C3)NC(=O)[C@H](CCCCNC(=O)CC[C@@H](C(=O)N[C@@H](C)C(N)=O)NC(=O)[C@H](Cc3csc5ccccc35)NC(=O)[C@H](Cc3ccccc3C)NC4=O)NC(=O)[C@H](Cc3ccccc3)NC(=O)[C@H](C)NC(=O)C(C)(C)NC(=O)[C@H](Cc3cccc(C(=O)O)c3)NC(=O)[C@H](CC(=O)O)NC1=O)NC(=O)[C@H](CC(C)(C)C)NC(=O)[C@H](CC(=O)O)NC2=O` (relative stereo) [I-294, Ac-PL3-Asp-Npg-B5-Asp-3COOHF-Aib-Ala-Phe-Lys*3-PyrS2-2MeF-BztA-GlnR*3-Ala-NH2] reads at most 10 µM; that for “Ac-PL3-Asp-Ile-B5-Asp-3COOHF-Aib-Ala-Phe-Lys*3-PyrS2-2FF-34ClF-GlnR*3-NH2 [I-1539]”, at most 10 µM.
The result for “Ac-PL3-Asp-Ile-B5-Asp-3COOHF-CyLeu-Ala-Phe-Lys*3-PyrS2-3Thi-34ClF-GlnR*3-Val-Thr-Ala-NH2 [I-1268]” reads at most 10 µM.
As to “Ac-PL3-Asp-Chg-B5-Asp-3COOHF-CyLeu-Ala-Phe-Lys*3-PyrS2-Phe-34ClF-GlnR*3-NH2 [I-1056]”, the IC50 was at most 10 µM.
For the molecule “Ac-PL3-Asp-DipA-B5-Asp-3COOHF-Ala-Ala-Phe-Lys*3-PyrS2-3Thi-34ClF-GlnR*3-Ala-Ala-Ala-[mPEG37]-Lys [I-1706]”, the IC50 is at most 10 µM.
The result for “Ac-PL3-Asp-Npg-B5-Asp-3COOHF-Aib-Ala-Phe-Lys*3-PyrS2-3Thi-BztA-GlnR*3-Ala-Ala-Arg-Ala-Ala-Ala-Arg-NH2 [I-1157]” reads at most 10 µM; that for “Ac-PL3-Asp-DipA-B5-Asp-3COOHF-Ala-Ala-Phe-Lys*3-PyrS2-3Thi-34ClF-GlnR*3-[mPEG8]-Lys-NH2 [I-1701]”, at most 10 µM.
“Ac-PL3-Asp-Cha-B5-Asp-3COOHF-CyLeu-Ala-Phe-Lys*3-PyrS2-3Thi-34ClF-GlnR*3-NH2 [I-1047]”: the IC50 is at most 10 µM.
The result for “Ac-PL3-Asp-Ile-B5-Asp-3COOHF-Phe-Ala-Phe-Lys*3-PyrS2-Phe-34MeF-GlnR*3-Ala-NH2 [I-1106]” reads at most 10 µM; that for “Ac-PL3-Asp-DipA-B5-Asp-3COOHF-Ala-Ala-Phe-Lys*3-PyrS2-3Thi-34ClF-GlnR*3-NH2 [I-1111]”, at most 10 µM; that for “Ac-PL3-Asp-Ile-B5-Asp-3COOHF-Ala-Ala-Phe-Lys*3-PyrS2-3Thi-BztA-GlnR*3-Ala-NH2 [I-970]”, at most 10 µM.
Take “Ac-PL3-Asp-Npg-B5-Asp-3COOHF-Aib-Ala-Phe-Lys*3-PyrS2-[2PyzCO]2NH2F-BztA-GlnR*3-Ala-NH2 [I-1755]”: the IC50 is above 20 µM.
The result for “Ac-PL3-Asp-Ile-B5-Asp-3COOHF-Aib-Ala-Phe-1MeK*3-PyrS2-Phe-34ClF-hGlnR*3-NH2 [I-1373]” reads above 20 µM; that for “Ac-PL3-Asp-DipA-B5-Asp-3COOHF-CyLeu-Ala-Phe-Lys*3-PyrS2-2F3MeF-BztA-GlnR*3-Val-NH2 [I-1774]”, at most 10 µM.
